Drawing on paper PMC4491657, “Design and Synthesis of Novel N-Arylsulfonyl-3-(2-yl-ethanone)-6-methylindole Derivatives as Inhibitors of HIV-1 Replication” (Pharmaceuticals, 2015), this text covers CC50, EC50 and melting point for eight compounds.

Structures are written as SMILES.

The melting point is the temperature, or range, at which the solid turns liquid.

Data set [1] can be described thus: MTT-based cytotoxicity assay. To be noted: human, C8166 cells, concentration that causes 50% reduction in total C8166 cell number, means of two separate experiments, read-out: CC50 (50% cytotoxic concentration). How it is done:
(§1) Cell line (C8166) and the laboratory-derived virus (HIV-1 IIIB) were obtained from the MRC, AIDS Reagent Project, London, UK. C8166 was maintained in RPMI-1640 supplemented with 10% heat-inactivated new born calf serum (Gibco, USA). The cells used in all experiments were in log-phase growth. The 50% HIV-1 IIIB tissue culture infectious dose (TCID50) in C8166 cells was determined and calculated by the Reed and Muench method. Virus stocks were stored in small aliquots at −70 °C [11].
Cellular toxicity of compounds 4a–f and 6 on C8166 cells was assessed by the MTT method as described previously. Briefly, cells were seeded on 96-well microtiter plate in the absence or presence of various concentrations of compounds in triplicate and incubated at 37 °C in a humid atmosphere of 5% CO2 for 3 days. The supernatants were discarded and MTT reagent (5 mg/mL in PBS) was added to each wells, then incubated for 4 h, 100 μL of 50% DMF-20% SDS was added. After the formazan was dissolved completely, the plates were read on a Bio-TekElx800 ELISA reader at 595/630 nm. The cytotoxic concentration that caused the reduction of viable C8166 cells by 50% (CC50) was determined from dose-response curve.
(In general: Tetrazolium assays rely on reduction of a dye to a coloured formazan, in cell work by metabolically active cells.)

In the next data set the test system is HIV-1 IIIB. Nature of the data set: Syncytia assay (anti-HIV-1 activity in acutely infected C8166 cells). It counts as cell-based. As to conditions: Human immunodeficiency virus 1, 72 h; concentration that reduces syncytia formation by 50%; C8166 cells infected with HIV-1 IIIB, M.O.I 0.06, 3 days; means of two separate experiments; read-out: EC50 (50% effective concentration). How it is done:
as §1
In the presence of 100 μL of various concentrations of compounds, C8166 cells (4 × 10^5/mL) were infected with virus HIV-1IIIB at a multiplicity of infection (M.O.I) of 0.06. The final volume per well was 200 μL. Control assays were performed without the testing compounds in HIV-1IIIB infected and uninfected cultures. After 3 days of culture, the cytopathic effect (CPE) was measured by counting the number of syncytia. Percentage inhibition of syncytia formation was calculated and 50% effective concentration (EC50) was calculated. AZT (Sigma, USA) was used as a positive control. Therapeutic index (TI) = CC50/EC50 [13].

With `Cc1cn([C@H]2C[C@H](N=[N+]=[N-])[C@@H](CO)O2)c(=O)[nH]c1=O` [AZT, 3'-azido-3'-deoxythymidine, reference compound], the CC50 at 3 days in data set [1] stood at 4260 µM. The EC50 with HIV-1 IIIB stood at 0.0121 µM.

As for `Cc1ccc2c(C(=O)CN3CCCCC3)cn(S(=O)(=O)c3ccccc3)c2c1` [Compound 4a, N-Phenylsulfonyl-3-[2-piperidinylethanone]-6-methylindole], the melting point was in the range of 132 to 134 °C. Also, the CC50 at 3 days in data set [1] was above 504 µM. In addition, the EC50 with HIV-1 IIIB stood at 32.8 µM.

Compound `Cc1ccc2c(C(=O)CN3CCOCC3)cn(S(=O)(=O)c3ccccc3)c2c1` [Compound 4b, N-Phenylsulfonyl-3-[2-morpholinoethanone]-6-methylindole] came in with a melting point of 174 to 176 °C. For the same compound, the CC50 at 3 days in data set [1] is above 502 µM. In the data set with HIV-1 IIIB, the EC50 was determined as 56.6 µM.

`Cc1ccc2c(C(=O)CN3CCCC3)cn(S(=O)(=O)c3ccccc3)c2c1` [Compound 4c, N-Phenylsulfonyl-3-[2-pyrrolidinoethanone]-6-methylindole] gave a melting point of 124 to 126 °C. Moreover, the CC50 at 3 days in data set [1] amounted to 226 µM. Moreover, the EC50 in the data set on HIV-1 IIIB is 106 µM.

As for `Cc1ccc2c(C(=O)CN(C(C)C)C(C)C)cn(S(=O)(=O)c3ccccc3)c2c1` [Compound 4d, N-Phenylsulfonyl-3-[2-diisopropylaminoethanone]-6-methylindole], the CC50 at 3 days in data set [1] was 220 µM. The EC50 in the data set with HIV-1 IIIB amounted to 17.9 µM.

Regarding `CCCCNCC(=O)c1cn(S(=O)(=O)c2ccccc2)c2cc(C)ccc12` [Compound 4e, N-Phenylsulfonyl-3-[2-butylaminoethanone]-6-methylindole], the CC50 at 3 days in data set [1] stood at 43.8 µM. Besides, the EC50 in the data set with HIV-1 IIIB stood at 30 µM.

As to `CCc1ccc(S(=O)(=O)n2cc(C(=O)CN3CCOCC3)c3ccc(C)cc32)cc1` [Compound 4f, N-(p-Ethyl)phenylsulfonyl-3-[2-morpholinoethanone]-6-methylindole], the CC50 at 3 days in data set [1] was above 469 µM. For the same compound, the EC50 in the data set with HIV-1 IIIB was determined as 9.42 µM.

Consider `CCc1ccc(S(=O)(=O)n2cc(C(=O)CSc3nnc(-c4ccccc4)o3)c3ccc(C)cc32)cc1` [Compound 6, N-(p-Ethyl)phenylsulfonyl-3-[2-(5-phenyl-1,3,4-oxadiazole-2-yl-thio)ethanone]-6-methylindole], for which the melting point lay in the range of 122 to 124 °C. In addition, the CC50 at 3 days in data set [1] turned out to be 309 µM. Also, in the data set on HIV-1 IIIB, the EC50 was 4.62 µM.
